Columns and labels:
[1] = test system: serum glucose; assay: Serum glucose in wild-type mice, acute treatment; type: in vivo, BALB/c mice; settings: 30 mg/kg IP, 24 hours, n=7
Procedure: In addition to obesity, ob/ob mice also develop overt diabetes with significant elevation of blood glucose. C-75 corrected the hyperglycemia observed in vehicle treated mice with a nearly 3-fold reduction in mean serum glucose (FIG. 4A). Male ob/ob mice (n=3) were treated with C-75 or vehicle for 2 weeks (FIGS. 3B and C) and compared with age matched, untreated c57BL/6j mice (+/+). […] The normalization of blood glucose occurred from the profound weight loss in the ob/ob mice as acute treatment of normal mice with C-75 had no effect on serum other than that resulting from inhibition of feeding (FIG. 4B). Male BALB/c mice (n=7) were fasted for 24 hours or injected IP with 30 mg/kg C-75 or RPMI vehicle and allowed free access to food for 24 hours. In both cases, serum was collected at death and assayed for glucose: RefLab™ GLU (Medical Analysis Systems, Inc., Camarillo, Calif.). […] Both panels are representative of 2 experiments.

[2] = test system: feeding behavior; assay: Food intake after a single IP injection (metabolic cages); type: in vivo, BALB/c mice; settings: 15 mg/kg, first 24 hours
Procedure: Male BALB/c mice 19-22 g were weighed, treated by a single intra peritoneal (I.P.) injection and housed in metabolic cages. Body weight (FIG. 1.2A) and food intake (FIG. 1.2B) were monitored at 24 hour intervals.
Inhibitors of fatty acid synthesis would be expected to prevent triglyceride accumulation due to inhibition of de novo fatty acid synthesis and impact body weight in this manner. […] However, the dramatic C-75-induced weight loss cannot be accounted for by a blockade of fatty acid/triglyceride biosynthesis. Rather, the weight loss observed in response to C-75 treatment results primarily from an inhibition of feeding. The loss of adipose mass was accompanied by a reduction of lean body mass typical of that observed in fasting. Administration of 15 mg/kg body weight led to a greater than 90% reduction in food intake over the first 24 hours (FIG. 1.2B). Feeding behavior then returned to normal progressively over a 48-72 hour period as the drug effect dissipated. The role of feeding inhibition in C-75 induced weight loss was confirmed by studies in which forced feeding of the drug treated animals largely reversed the observed weight loss.

[3] = test system: liver and white adipose tissue; assay: Histology of liver and white adipose tissue of treated ob/ob mice; type: in vivo
Text: C-75 treatment not only led to weight loss, but also corrected many of the pathological consequences that result from the extreme obesity of ob/ob mice. Liver samples from vehicle and C-75 treated mice (from FIG. 3B) were fixed in formalin and paraffin embedded. Tissue sections (4 μm) were stained with hematoxylin and eosin. […] The observation that C-75 acts through a leptin independent mechanism is particularly promising in that the majority of obese individuals appear to be relatively resistant to leptin's effects (Caro, et al., 1996, Lancet, 348:159).

[4] = test system: leptin; assay: Serum leptin ELISA; type: in vivo, BALB/c mice; settings: 30 mg/kg IP, 24 hours
Text: One of the primary signals modulating NPY function in feeding control is leptin. This hormone is elevated in the fed state and inhibits NPY production and feeding (Schwartz, et al., 1996, Diabetes, 45:531) in a manner similar to that observed with C-75 treatment. Leptin was an attractive candidate as its primary site of production, white adipose tissue (Zhang, et al., 1994, Nature, 372:425), is a site of fatty acid synthesis and expresses high levels of FAS. To test for increased leptin release as the signal mediating C-75 regulation of NPY, serum leptin levels were assessed in fed (end of light cycle) fasted and C-75-treated mice. BALB/c mice treated with RPMI vehicle (o) or 30 mg/kg C-75 (▪) I.P. and free fed, or fasted ([…]) for 24 hours were weighed, decapitated and exsanguinated. Serum leptin levels were determined using a QUANTIKINE™ murine leptin ELISA (R&D Systems) and plotted against total body weight (FIG. 3A). […] This reduction correlates with the reduction in body weight, presumably body fat, resulting from C-75 treatment FIG. 3A). […] Northern blot analysis of leptin message levels in white adipose tissue from the same animals (performed as described above) supports this observation (data not shown).

[5] = test system: feeding behavior; assay: Food intake after ICV injection of C-75; type: in vivo, mice; settings: ICV 2 μl at 2.5 or 5 μg/μl, food intake over 2 and 4 hours
Procedure: This model predicts that feeding inhibition by FAS inhibitors should be attenuated by inhibitors of ACC's. To test this, mice were pretreated with the ACC inhibitor TOFA or vehicle by ICV injection and examined the ability of C-75, administered IP, to inhibit feeding. BALB/c mice were anesthetized with metofane and injected ICV with 2 μg of TOFA or DMSO vehicle. After 2 hours recovery, mice were injected IP with 15 mg C-75/kg or RPMI vehicle and monitored for total food intake over 2 hours. […] In addition, mice were anesthetized and injected ICV with 2 μl of RPMI or C-75 at 2.5 or 5 μg/μl and food intake monitored over 2 (shaded) and 4 (solid) hours. The efficacy of centrally administered TOFA argues for a central (CNS) mechanism of action. ICV administration of C-75 inhibited feeding by 82% (FIG. 5C), supporting the central target action of C-75. FIGS. 5(B) and (C) combine results from 3 experiments with N=3 for each (9 total).

[6] = Weight loss of C-75-treated versus fasted mice; type: in vivo, BALB/c mice; settings: 30 mg/kg, 24 hours, n=7
Text: To determine whether the weight loss is attributable entirely to suppression of feeding, treatment with a dose of C-75 that completely suppresses feeding was compared with fasting. Both fasting and C-75 led to significant weight loss relative to control; however, in many experiments the C-75 treated mice lost more weight than did the fasted animals (FIG. 2A). The normal response to fasting is to reduce energy utilization to limit depletion of energy stores (Loftus, 1999). If C-75 treatment results in a “perceived fed state”, it may allow maintenance of a normal metabolic rate as well as inhibition of feeding.
Male BALB/c mice 19-21 g were preweighed and treated with vehicle or 30 mg/kg C-75 and allowed free access to food, or were denied all access to food (fasted). After 24 hours, mice were weighed. Change from initial body weight is shown in FIG. 2A, expressed as mean +/±SEM (n=7). C-75 treated mice lost 45% more weight than did the fasted animals.

In the case of C=C1C(=O)OC(CCCCCCCC)C1C(=O)O (centres unmarked) [C-75], the “effect on serum glucose in wild-type mice” value [1] is reported as “no effect on serum glucose beyond that attributable to fasting”, the “reduction in food intake” value [2] is reported as “greater than 90%” and the “liver histology (hepatomegaly and fatty liver)” value ([3]; 14 days treatment) is reported as “marked reduction in the hepatomegaly and fatty liver”. The “mean adipocyte size in white adipose tissue” value ([3]; 14 days treatment (not shown)) was “dramatic reduction in mean adipocyte size”, the “histological abnormality from chronic treatment” value ([3]; liver and white adipose tissue) was “no evidence of histological abnormality” and the serum leptin levels [4] was “reduction in leptin levels”. For the same molecule, the “inhibition of feeding by ICV administration” value [5] was 82% and the “more weight lost than fasted animals” value [6] was 45%.

From US20100022639A1, “Methods of Inducing Weight Loss” (The Johns Hopkins University School of Medicine Licensing …, priority 2000, published 2010)
